Experimental data: patent US6451576B1, “Sesquiterpene synthases from grand fir (Abies grandis), and methods of use” (Washington State University Research Foundation, priority 1998, dated 2002)

Biological target: T1, δ-Selinene Synthase (ag4) (SEQ ID No. 20) (Abies grandis, UniProt O64404)
T1 construct: made in house; host or cells: E. coli XL1-Blue/pGAG4 or E. coli BL21(DE3)/pSBAG4
T1 sequence (O64404 1-581): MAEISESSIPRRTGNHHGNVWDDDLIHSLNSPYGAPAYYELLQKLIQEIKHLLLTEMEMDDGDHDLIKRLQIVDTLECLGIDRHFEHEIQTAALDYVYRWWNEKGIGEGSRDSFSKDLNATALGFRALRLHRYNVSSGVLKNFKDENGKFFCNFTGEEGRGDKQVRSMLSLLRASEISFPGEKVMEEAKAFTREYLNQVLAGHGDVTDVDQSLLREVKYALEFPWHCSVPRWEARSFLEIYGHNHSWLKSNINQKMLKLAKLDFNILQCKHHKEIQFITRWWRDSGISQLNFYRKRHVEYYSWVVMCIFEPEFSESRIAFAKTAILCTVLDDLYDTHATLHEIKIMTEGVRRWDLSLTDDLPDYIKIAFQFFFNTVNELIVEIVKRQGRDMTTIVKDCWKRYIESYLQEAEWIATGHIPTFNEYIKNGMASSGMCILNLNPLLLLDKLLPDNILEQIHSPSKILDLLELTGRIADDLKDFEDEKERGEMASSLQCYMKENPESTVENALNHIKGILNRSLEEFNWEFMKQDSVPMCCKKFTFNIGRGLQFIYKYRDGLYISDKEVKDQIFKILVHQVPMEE
Test: Product profile of recombinant δ-selinene synthase in vitro (preparative assay, GLC-MS)
Type: biochemical
Settings: from [1-3H]farnesyl diphosphate; total ion current chromatogram
Experimental: (§1) For preparative incubations, the assay was scaled to 5 ml containing the total protein extracted from 100 ml of bacterial culture and 30 μM [1-^3H]farnesyl diphosphate, and the incubation time was extended to 8 h. Aliquots of the olefin fraction and the fraction containing oxygenated metabolites (diethyl ether eluate) were evaluated by liquid scintillation counting, and were analyzed by radio-GLC (Croteau, R. & Cane. D. E. (1985) Methods Enzymol. 110, 383-405; Satterwhite, D. M. & Croteau, R. (1988) J. Chromatogr. 452, 61-73) using a Gow-Mac 550P chromatograph that was equipped with a 3.18 mm×3.66 m stainless steel column packed with 5% OV17 (50% phenyl:50% methylsiloxane) on 100/120 mesh Gas Chrom Q (Alltech) and programmed from 150° C. to 220° C. at 2° C./min with He as carrier. The elution of co-injected standards was monitored with the Gow-Mac thermal conductivity detector (250° C. and 150 mA) and the radioactivity signal was continuously monitored with a Nuclear Chicago Model 8731 gas proportional counter; output data were processed using Perkin-Elmer Turbochrom Software.
(§2) Expression of Sesquiterpene Synthase cDNAs AG4 (SEQ ID No:19) and AG5. (SEQ ID No:23) in E. coli. Both putative sesquiterpene cyclase cDNAs (SEQ ID Nos:19 and 23) were expressed in bacterial strains E. coli XL1-Blue/pGAG4, E. coli XL1-Blue/pGAG5, E. coli BL21(DE3)/pSBAG4, and E. coli BL21(DE3)/pSBAG5 as set forth in EXAMPLE 7. Bacteria were grown to A600=0.5 at 37° C. in 5 ml or 100 ml of LB medium supplemented with 100 μg ampicillin/ml or 30 μg kanamycin/ml as determined by the vector. Cultures were then induced by addition of 1 mM isopropyl-1-thio-β-D-galactopyranoside and grown for another 12 h at 20° C. Cells were harvested by centrifugation (2000×g, 10 min) and resuspended in either 1 ml or 5 ml sesquiterpene synthase assay buffer (EXAMPLE 2). Cells were disrupted by sonication (Braun-Sonic 2000 with microprobe at maximum power for 15 seconds at 0-4° C.) and the homogenates were cleared by centrifugation (18,000×g, 10 min). Preparative assays were employed to generate product for GLC-MS analysis, as set forth in EXAMPLE 2, with quantification of composition via the total ion current chromatogram.
Product Profile of Recombinant δ-Selinene Synthase (SEQ ID No:20) In Vitro.

Going from `CC1=CCCC2(C)CCC(=C(C)C)CC12` (stereo not drawn) [Seli-3,7(11)-diene] to `C=C(C)[C@@H]1CC[C@@]2(C)CCC=C(C)[C@@H]2C1` [α-Selinene], the “sesquiterpene products of δ-selinene synthase, %” value rises from 1.2% to 1.7%.

`CC1=CC[C@H]2[C@H]3[C@@H]1[C@]2(C)CC[C@H]3C(C)C` [α-Copaene] and `CC1=CC[C@@H]2[C@H]3[C@H](C(C)C)CC[C@]2(C)[C@@H]13` [α-Ylangene] are the same in “sesquiterpene products of δ-selinene synthase, %” value: 0.1% for the first, 0.1% for the second.

Compared with `CC1=C2C=C(C(C)C)CCC2(C)CCC1` (stereo not drawn) [δ-Selinene], `C=C1CCCC2(C)CCC(C(C)C)=CC12` (stereo not drawn) [Sibirene] is lower in “sesquiterpene products of δ-selinene synthase, %” value: 25.3% for the first, 0.7% for the second.

Going from `CC1=C[C@@H]2[C@@H](CC1)C(C)=CC[C@H]2C(C)C` [α-Cadinene] to `CC1=CC2C(CC1)C(C)=CCC2C(C)C` (stereo not drawn) [α-Amorphene], the “sesquiterpene products of δ-selinene synthase, %” value rises from 0.2% to 2.7%.

First: CC1=CCC(C(C)C)=C[C@@H]2[C@H](C)CC[C@H]12 [Guaia-6,9-diene]
Second: C/C1=C\C=C(\C(C)C)CC/C(C)=C/CC1 [Germacrene C]
The “sesquiterpene products of δ-selinene synthase, %” value of the first is higher: 9.7% for the first, 3.4% for the second.

Going from `C=C1CC/C=C(\C)CC[C@@H]2[C@@H]1CC2(C)C` [β-Caryophyllene] to `C=C(C)[C@@H]1C/C=C(\C)CC/C=C(\C)CC1` [Germacrene A], the “sesquiterpene products of δ-selinene synthase, %” value rises from 1.5% to 6.7%.

Going from `CC1=C[C@@H]2C(=C(C)CC[C@H]2C(C)C)CC1` [δ-Cadinene] to `CC1=C[C@H]2C(=C(C)CC[C@H]2C(C)C)CC1` [δ-Amorphene], the “sesquiterpene products of δ-selinene synthase, %” value rises from 1.4% to 6.4%.

Going from `C=C1/C=C/[C@H](C(C)C)CC/C(C)=C/CC1` [Germacrene D] to `CC(C)=C1C/C=C(\C)CC/C=C(\C)CC1` [E,E-Germacrene B], the “sesquiterpene products of δ-selinene synthase, %” value rises from 0.8% to 17.4%.

First: C=C(C)[C@@H]1CC[C@H](C)C2=C(C1)[C@@H](C)CC2 [α-Guiaene]
Second: C=C(CCC=C(C)C)[C@@H]1CC=C(C)CC1 [β-Bisabolene]
The “sesquiterpene products of δ-selinene synthase, %” value of the first is lower: 0.2% for the first, 0.7% for the second.

Compared with `CC(C)=C1C/C=C(\C)CC/C=C(\C)CC1` [Z-E-Germacrene B (tent.), Z,E-Germacrene B], `C/C1=C\CC/C(C)=C/CC(C)(C)/C=C/C1` [α-Humulene] is lower in “sesquiterpene products of δ-selinene synthase, %” value: 1.3% for the first, 0.7% for the second.

Biological target: T2, γ-Humulene Synthase (ag5) (SEQ ID No: 24) (Abies grandis, UniProt O64405)
T2 construct: For further subcloning of the amplified, full-length cDNA into the pSBETa vector for high-level expression, the pGAG5 insert was amplified; made in house; host or cells: E. coli XL1-Blue/pGAG5 or E. coli BL21(DE3)/pSBAG5
T2 sequence (O64405 1-593): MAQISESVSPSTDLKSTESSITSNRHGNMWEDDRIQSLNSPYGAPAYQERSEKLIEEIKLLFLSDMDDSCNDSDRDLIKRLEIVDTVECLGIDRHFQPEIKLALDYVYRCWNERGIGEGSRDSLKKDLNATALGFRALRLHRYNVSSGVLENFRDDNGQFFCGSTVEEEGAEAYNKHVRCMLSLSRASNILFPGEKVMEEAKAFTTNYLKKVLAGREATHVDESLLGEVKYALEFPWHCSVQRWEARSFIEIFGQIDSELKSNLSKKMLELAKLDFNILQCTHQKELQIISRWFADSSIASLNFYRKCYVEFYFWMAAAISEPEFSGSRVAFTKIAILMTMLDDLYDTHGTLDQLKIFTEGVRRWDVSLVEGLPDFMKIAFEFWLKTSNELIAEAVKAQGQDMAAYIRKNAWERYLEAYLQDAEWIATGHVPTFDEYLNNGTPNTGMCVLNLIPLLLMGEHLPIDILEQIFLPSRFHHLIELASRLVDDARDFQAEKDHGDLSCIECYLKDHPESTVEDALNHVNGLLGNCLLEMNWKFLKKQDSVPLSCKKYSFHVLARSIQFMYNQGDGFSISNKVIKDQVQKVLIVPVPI
Test: Product profile of recombinant γ-humulene synthase in vitro (preparative assay, GLC-MS)
Type: biochemical
Settings: from [1-3H]farnesyl diphosphate; total ion current chromatogram
Experimental: as §1, §2
Product Profile of Recombinant γ-Humulene Synthase (SEQ ID No:24) In Vitro.

Going from `CC1=CC[C@@H]2[C@@H]3[C@H]1[C@@]2(C)CCCC3(C)C` [α-Longipinene] to `C=C1CCC2C3C1C2(C)CCCC3(C)C` (stereo not drawn) [β-Longipinene], the “sesquiterpene products of γ-humulene synthase, %” value falls from 3.4% to 1.5%.

Compared with `CC1=CC[C@H]2[C@H]3[C@@H]1[C@]2(C)CC[C@H]3C(C)C` [α-Copaene], `CC1=CC[C@@H]2[C@H]3[C@H](C(C)C)CC[C@]2(C)[C@@H]13` [α-Ylangene] is higher in “sesquiterpene products of γ-humulene synthase, %” value: 0.1% for the first, 2.7% for the second.

Going from `C=C1C=CC(C)(C)CCCC(C)=CCC1` [γ-Humulene] to `C=C1CCCC(C)(C)[C@H]2C=C(C)CC[C@@H]12` [α-Himachalene], the “sesquiterpene products of γ-humulene synthase, %” value falls from 28.6% to 4.8%.

Compared with `C=C1[C@@H]2CC[C@H]3[C@@H]2[C@@H](C(C)C)CC[C@@]13C` [Sativene], `C=C1CCC2C3C(C(C)C)CCC2(C)C13` (stereo not drawn) [β-Ylangene] is lower in “sesquiterpene products of γ-humulene synthase, %” value: 3.1% for the first, 0.3% for the second.

Compared with `CC1=C[C@H]2[C@@H](CC1)C(C)=CCCC2(C)C` [γ-Himachalene], `CC1=CC2C(CC1)C(C)=CCC2C(C)C` (stereo not drawn) [α-Amorphene] is lower in “sesquiterpene products of γ-humulene synthase, %” value: 5.8% for the first, 0.5% for the second.

Compared with `C=C1[C@H]2CC[C@@H]3[C@H]2C(C)(C)CCC[C@]13C` [Longifolene], `CC1(C)CCC[C@@]2(C)[C@@H]3CC4C([C@@H]31)C42C` [Longicyclene] is lower in “sesquiterpene products of γ-humulene synthase, %” value: 11.8% for the first, 0.2% for the second.

First: CC(C)=CCC/C(C)=C1/CC=C(C)CC1 [γ-Bisabolene]
Second: C=C(CCC=C(C)C)[C@@H]1CC=C(C)CC1 [β-Bisabolene]
The “sesquiterpene products of γ-humulene synthase, %” value of the first is lower: 1.9% for the first, 3.9% for the second.

`CC1=CC[C@@]23[C@@H]([C@@H]12)[C@H](C(C)C)CC[C@H]3C` [α-Cubebene] and `C=C1CC[C@@]23[C@@H]([C@@H]12)[C@H](C(C)C)CC[C@H]3C` [β-Cubebene] are the same in “sesquiterpene products of γ-humulene synthase, %” value: 0.1% for the first, 0.1% for the second.

First: CC1CCC=C2CCC3C(C3(C)C)C21C (stereo not drawn) [β-Gurjunene]
Second: CC1=C[C@H]2C(=C(C)CCCC2(C)C)CC1 [β-Himachalene]
The “sesquiterpene products of γ-humulene synthase, %” value of the first is lower: 2.0% for the first, 7.2% for the second.

Going from `CC1=CCCC(C)=CCCC(C)=CCC1` [1,5,9-trimethylcyclododeca-1,5,9-triene (tent. 2 isomers), 1,5,9-trimethylcyclododeca-1,5,9-triene] to `CC(C)=C1C/C=C(\C)CC/C=C(\C)CC1` [Z-E-Germacrene B (tent.), Z,E-Germacrene B], the “sesquiterpene products of γ-humulene synthase, %” value falls from 0.2% to 0.1%.

First: CC(C)=CC/C=C(/C)C1CC=C(C)CC1 (stereo not drawn) [E-α-Bisabolene]
Second: C=CC(=C)CC/C=C(\C)CCC=C(C)C [E-β-Farnesene]
The “sesquiterpene products of γ-humulene synthase, %” value of the first is lower: 0.9% for the first, 1.3% for the second.

Going from `C=C1CCCC2(C)CCC(C(C)C)=CC12` (stereo not drawn) [Sibirene] to `CC1=C[C@H]2C(=C(C)CC[C@H]2C(C)C)CC1` [δ-Amorphene], the “sesquiterpene products of γ-humulene synthase, %” value falls from 15.1% to 0.5%.

For `CC(C)C1CCC2(C)C3CC4C(C13)C42C` (stereo not drawn) [Cyclosativene], the “sesquiterpene products of γ-humulene synthase, %” value was less than 0.1%.
